Laboratory results taken from publication PMC9583845, “Characterization of the chicken melanocortin 5 receptor and its potential role in regulating hepatic glucolipid metabolism” (Frontiers in Physiology, 2022).
“Also recorded” adds a separate entry of the source. Like-named read-outs stand apart in the source and are kept apart here.

Columns and labels:
[1] = system: THRSPA mRNA, primary chicken hepatocytes; test: THRSPA mRNA in primary chicken hepatocytes, RT-qPCR; type: cell-based; settings: 6 h, N = 4, Figures 8D-F
Protocol: (§1) To evaluate the effect of ACTH1-39 on chicken liver, the chicken hepatocytes were prepared and maintained as a monolayer culture. Briefly, one-month-old male chicken hepatocytes were isolated by perfusion of a liver with Ca^2+-free KRB buffer to remove blood cells, and being digested with 0.25% collagenase-I for 10 min. Hepatocytes were obtained following filtering and washing using M199 medium. Then the hepatocytes were plated in a Corning CellBIND 48-well microplate (Corning, NY, cat. no.3338) with M199 medium containing 100 U/ml penicillin and […] streptomycin (Gibco), 5 μg/ml bovine insulin (Sigma), and 5% FBS at 37°C in a 5% CO2 atmosphere. To adhere to the wall, the cells were incubated on the 48-well plate for 4 h.
(§2) For quantitative real-time PCR, primary cultured chicken hepatocytes were treated with various concentrations of ACTH1-39 (or other composition) at 37°C for 6 h. The relative amount of mRNA was calculated using the comparative Ct method. Chicken β-actin gene was used as the reference gene. Amplification of specific transcripts was confirmed by analyzing the melting curve profile performed at the end of each run and by determining the size of the PCR products using agarose electrophoresis and ethidium bromide staining.

[2] = system: MC5R mRNA, primary chicken hepatocytes; test: MC5R mRNA in primary chicken hepatocytes, RT-qPCR; type: cell-based; settings: primary chicken hepatocytes, 6 h, N = 4, vs β-actin, Figures 6C-E
Protocol: as §1, with “h. For quantitative real-time PCR, primary cultured chicken hepatocytes were treated with various concentrations of ACTH1-39 (or other composition) at 37°C for 6 h. The relative amount of mRNA was calculated using the comparative Ct method. Chicken β-actin gene was used as the reference gene. Amplification of specific transcripts was confirmed by analyzing the melting curve profile performed at the end of each run and by determining the size of the PCR products using agarose electrophoresis and ethidium bromide staining.” for “h.”

[3] = system: ELOVL6 mRNA, primary chicken hepatocytes; test: ELOVL6 mRNA in primary chicken hepatocytes, RT-qPCR; type: cell-based; settings: 6 h, N = 4, Figures 8A-C
Protocol: as §1, §2

[4] = target: T1, chicken MC5R (Gallus gallus, UniProt O73671); test: pGL3-CRE-luciferase reporter assay, CHO cells expressing chicken MC5R; type: cell-based; settings: for ability to activate / sensitivity of cMC5R (in words, ranking): CHO cells expressing cMC5R; for EC50: Figure 2B, CHO cells transiently expressing cMC5R, 10^−12–10^−6 M, 6 h, mean ± SEM of three replicates (N = 3), representative of three independent experiments, read-out: EC50 (activation of cMC5R)
T1 sequence (O73671 1-325): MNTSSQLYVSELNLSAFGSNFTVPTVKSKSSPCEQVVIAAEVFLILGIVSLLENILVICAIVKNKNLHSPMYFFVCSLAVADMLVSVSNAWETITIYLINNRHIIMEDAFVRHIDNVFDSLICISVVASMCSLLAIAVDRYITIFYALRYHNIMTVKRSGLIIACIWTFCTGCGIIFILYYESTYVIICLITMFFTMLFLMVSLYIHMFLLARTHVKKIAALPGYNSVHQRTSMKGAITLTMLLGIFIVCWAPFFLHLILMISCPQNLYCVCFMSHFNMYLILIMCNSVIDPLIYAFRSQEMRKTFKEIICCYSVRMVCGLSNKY
Excerpt: All chemicals were purchased from Sigma-Aldrich (St. Louis, MO, United States) and the restriction enzymes were obtained from TaKaRa (Dalian, China). […] All primers used in this study were synthesized by Beijing Genome Institute (BGI, China) and listed in Supplementary Table 1.
The expression plasmids encoding MC5R, MRAP1 and MRAP2 were established by cloning their entire open reading frame (ORF) into the pcDNA3.1 (+) expression vector (Invitrogen).
The cells were then transfected with a mixture containing 700 ng pGL3-CRE-Luciferase reporter construct, 200 ng of receptor expression plasmid (or empty pcDNA3.1 vector as a negative control), 20 ng of pRL-TK construct (containing a Renilla luciferase gene, used as an internal control), and 2 μl jetPRIME transfection reagent (Polyplus Transfection, Illkirch, France) in 200 μL buffer. […] After removal of the medium from the 96-well plate, the cells were treated with 100 μl ligand-containing medium (or ligand-free medium) for 6 h. Finally, CHO cells were lysed with 1 × passive lysis buffer for luciferase assay (Promega) and the luciferase activity of the cell lysate was measured by a Multimode Microplate Reader (TriStar LB941, EG&G Berthold, Germany) according to the manufacturer’s instruction.
All statistical analysis was performed using GraphPad Prism 9 (Graph Pad Software Inc., San Diego, CA). The dose-response curves were constructed using nonlinear regression models. Student’s test was used to compare two groups, for more than two groups one-way ANOVA was performed followed by Dunnett’s test. To validate our results, all in-vitro experiments were repeated three times, and representative data are reported.

[5] = system: chicken MC5R D119A; settings: ref Min et al., 2019; cited from earlier work
[6] = system: chicken MC5R F254A; settings: ref Min et al., 2019; cited from earlier work
[7] = system: chicken MC5R D204A; settings: ref Min et al., 2019; cited from earlier work
[8] = system: hMC5R + MRAP2; settings: in vitro; ref Chan et al., 2009; cited from earlier work
Excerpt: Our results were consistent with previous results. […] In zebrafish, MRAP2a decreased the surface expression and efficacy of MC5Ra/MC5Rb, but not MRAP2b, in the same manner as mouse MRAP2 did ([Zhu et al., 2019]). In ricefield eel (Monopterus albus), two isoforms of MRAP2 (maMRAP2X1 and maMRAP2X2) significa ...

[9] = system: human MC5R; settings: ref Schioth et al., 1997; Ling et al., 2004; cited from earlier work
Excerpt: The luciferase reporter system was then employed to investigate the signal pathway of MC5R coupling. […] Human peptides have previously been ...

[10] = target: T1, chicken MC5R; set-up: method as in 3 sources, ref Ling et al., 2004 ||| ref Dores et al., 2020 ||| ref Schioth et al., 1997; Ling et al., 2004; settings: cited from earlier work; for ability of hACTH1-39 vs hACTH1-24 to activate chicken MC5R: ref Schioth et al., 1997, Ling et al.; for ability of hACTH1-39 vs hACTH1-24 to activate chicken MC5R / EC50 values / potency at chicken MC5R compared (in words): 2004; for EC50 values / potency at chicken MC5R compared (in words): human α-MSH vs ACTH1-24, ref Ling et al.
[11] = system: chicken MC2R + MRAP1; settings: co-expressed with MRAP1 in CHO cells; ref Barlock et al., 2014; cited from earlier work
Excerpt: In the chicken genome, there are five paralogous MCRs and two MRAPs ([Ling et al., 2004]; [Barlock et al., 2014]; [Zhang et al., 2017]; [Thomas et al., 2018]). In recent years, the pharmacological characterization and physiological activity of chicken MCRs (cMCRs) have been widely explored ([Scanes and Pierzchala-Koziec, 2021]). […] MC1R of dark-feathered chickens with a Glu to Lys mutation at position 92 show ...

[12] = system: MC5R orthologs + MRAP1; settings: ref Dores et al., 2018, Barney et al., 2019, 2020, Hoglin et al., 2022; cited from earlier work
Excerpt: (§3) Since the R15K and I20 V substitutions in chicken and human ACTH occur in/near the KKRRP motif (Figure 2A), it might lead to different regulatory effects o ...

[13] = target: chicken MC5R + MRAP1 (Gallus gallus, UniProt O73671); settings: 2020, cited from earlier work; for effect of MRAP1 on cMC5R sensitivity: CHO cells, ref Thomas et al., 2018, Dores et al.
Chain of chicken MC5R + MRAP1 (O73671 1-325): as above
Excerpt: as §3

[14] = target: chicken MC5R + MRAP2 (Gallus gallus, UniProt O73671); set-up: method as in Thomas et al., 2018; settings: ref Thomas et al., 2018; cited from earlier work
Chain of chicken MC5R + MRAP2 (O73671 1-325): as above
Chain of chicken MC5R + MRAP2 (A0A140B2F4 1-206 partner): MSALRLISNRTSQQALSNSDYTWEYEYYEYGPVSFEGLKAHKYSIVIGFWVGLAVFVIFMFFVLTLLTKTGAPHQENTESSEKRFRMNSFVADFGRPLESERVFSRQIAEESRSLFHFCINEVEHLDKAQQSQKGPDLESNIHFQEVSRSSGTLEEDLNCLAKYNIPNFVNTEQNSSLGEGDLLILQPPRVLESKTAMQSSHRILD

[15] = system: AC/cAMP/PKA signaling (cMC5R); test: Inhibition of ACTH- or α-MSH-stimulated luciferase activity in CHO cells expressing cMC5R; type: cell-based, chicken; settings: for inhibition of ACTH-stimulated luciferase activity: inhibitor (H89 10 μM, MDL 5 μM) added 0.5 h before ACTH (10 nM, 6 h), Figure 2E; for inhibition of α-MSH-stimulated luciferase activity: inhibitor (H89 10 μM, MDL 5 μM) added 0.5 h before α-MSH (10 nM, 6 h), Figure 2F
Protocol: In brief, CHO cells were cultured on a six-well plate (Nunc, Roskilde, Denmark) and grown for 24 h before transfection. The cells were then transfected with a mixture containing 700 ng pGL3-CRE-Luciferase reporter construct, 200 ng of receptor expression plasmid (or empty pcDNA3.1 vector as a negative control), 20 ng of pRL-TK construct (containing a Renilla luciferase gene, used as an internal control), and 2 μl jetPRIME transfection reagent (Polyplus Transfection, Illkirch, France) in 200 μL buffer. Twenty-four hours later, CHO cells were sub-cultured into a 96-well plate at 37°C for an additional 24 h before treatment. After removal of the medium from the 96-well plate, the cells were treated with 100 μl ligand-containing medium (or ligand-free medium) for 6 h. Finally, CHO cells were lysed with 1 × passive lysis buffer for luciferase assay (Promega) and the luciferase activity of the cell lysate was measured by a Multimode Microplate Reader (TriStar LB941, EG&G Berthold, Germany) according to the manufacturer’s instruction.
To test whether cMRAP1 and cMRAP2 can alter the pharmacological properties of cMC5R, CHO cells co-expressing MC5R and cMRAP1/cMRAP2 were treated with chicken ACTH1–39/α-MSH, and the relative potential of these two peptides to activate the receptor was also determined using the pGL3-CRE-luciferase reporter system. At the same time, H89 (a PKA inhibitor, 10 μM) and MDL12330 A (an AC inhibitor, 5 μM) were used to further determine the signal pathways activated by ACTH1-39/α-MSH.

Q: Which “THRSPA mRNA expression” value [1] does the source give for `Nc1ncnc2c1nc(Br)n2[C@@H]1O[C@@H]2COP(=O)(O)O[C@H]2[C@H]1O` [8-Br-cAMP] here?
A: Its value is “not affected; also recorded: did not affect the expression”.

Q: What about the “MC5R mRNA abundance (in words)” value [2] of the same molecule?
A: Its value is “dose-dependent increase in MC5R mRNA abundance; also recorded: enhance the expression of MC5R in cultured hepatocytes in a dose-dependent manner”.

Q: What about the “ELOVL6 mRNA expression” value [3] of the same molecule?
A: Its value is “not affected; also recorded: did not affect the expression”.

Q: Which “ability to activate / sensitivity of cMC5R (in words, ranking)” value [4] does the source give for Ac-YVMSHFRWNKF-NH2 [γ-MSH] here?
A: The value was “ACTH1-39 ≈ α-MSH > β-MSH > γ-MSH”.

Q: What about the EC50 [4] of the same molecule?
A: The EC50 was 0.144 ± 0.0154 µM.

Q: With NDP-MSH as the molecule, how does the “response of D119A mutant” value [5] read?
A: Its value is “completely unresponsive”.

Q: And the “reactivity of F254A mutant” value [6]?
A: The value was “significantly reduced the reactivity”.

Q: And the “response of D204A mutant” value [7]?
A: Its value is “completely unresponsive”.

Q: And the “efficacy at hMC5R with MRAP2” value [8]?
A: Its value is “reduced the efficacy of hMC5R to NDP-MSH”.

Q: What does the source list for “hACTH1-39: human ACTH1-39 (SYSMEHFRWGKPVGKKRRPVKVYPNGAEDESAEAFPLEF; Corticotropin; UniProt P01189 138-176, looked up)”?
A: ability of hACTH1-39 vs hACTH1-24 to activate human MC5R [9]: no different; ability of hACTH1-39 vs hACTH1-24 to activate chicken MC5R [10]: no different

Q: Which results are given for “human ACTH1-24: shortened form of hACTH1-39 used in cited studies”?
A: activation of cMC2R [11]: can be activated by ACTH1-24; effect of MRAP1 co-expression on sensitivity of MC5R orthologs [12]: increase sensitivity to ACTH1-24; effect of MRAP1 on cMC5R sensitivity [13]: improved chicken MC5R sensitivity to human ACTH1-24; effect of MRAP1 on cMC5R sensitivity ([13]; listed as hACTH1–24): significantly increased the sensitivity of cMC5R to hACTH1–24; increase of MC5R sensitivity to hACTH1–24 with cMRAP1 ([13]; KKRRP motif of hACTH1–24 necessary, ref Dores et al.): ~1,000 fold; ability of hACTH1-39 vs hACTH1-24 to activate human MC5R [9]: no different; EC50 values / potency at chicken MC5R compared (in words) [10]: equal potency for chicken MC5R; EC50 values / potency at chicken MC5R compared (in words) ([10]; listed as ACTH1-24): equivalent; ability of hACTH1-39 vs hACTH1-24 to activate chicken MC5R [10]: no different; EC50 compared, hACTH1-24 vs srACTH1–24 ([10]; srACTH1–24 has R15 and I20, ref Dores et al., 2020): no statistical differences in the EC50 values; effect of MRAP2 on cMC5R sensitivity [14]: no influence on cMC5R sensitivity to human ACTH1–24

Q: Which “THRSPA mRNA expression” value [1] does the source give for `C=C[C@@]1(C)CC(=O)[C@]2(O)[C@@]3(C)[C@@H](O)CCC(C)(C)[C@@H]3[C@H](O)[C@H](OC(C)=O)[C@@]2(C)O1` [forskolin] here?
A: The value was “did not affect the expression”.

Q: What about the “THRSPA mRNA expression” value ([1]; listed as Forskolin) of the same molecule?
A: Its value is “not affected”.

Q: And the “MC5R mRNA abundance (in words)” value [2]?
A: Its value is “significantly increased MC5R mRNA abundance; also recorded: enhance the expression of MC5R in cultured hepatocytes in a dose-dependent manner”.

Q: What about the “ELOVL6 mRNA expression” value [3] of the same molecule?
A: The value was “did not affect the expression”.

Q: And the “ELOVL6 mRNA expression” value ([3]; listed as Forskolin)?
A: Its value is “not affected”.

Q: With SHU9119 as the molecule, how does the “response of D119A mutant” value [5] read?
A: The value was “completely unresponsive”.

Q: And the “response of D204A mutant” value [7]?
A: The value was “completely unresponsive”.

Q: Which results are given for `Cl.c1ccc(C2CCCC2NC2=NCCCCCCCCCCC2)cc1` (centres unmarked) [MDL12330 A]?
A: inhibition of ACTH-stimulated luciferase activity [15]: significantly inhibit; inhibition of α-MSH-stimulated luciferase activity [15]: significantly inhibit

Q: Which results are given for `O=S(=O)(NCCNC/C=C/c1ccc(Br)cc1)c1cccc2cnccc12` [H89]?
A: inhibition of ACTH-stimulated luciferase activity [15]: significantly inhibit; inhibition of α-MSH-stimulated luciferase activity [15]: significantly inhibit

Q: What does the source list for H-DGGSYRMRHFRWHAPLKD-OH [β-MSH]?
A: ability to activate / sensitivity of cMC5R (in words, ranking) [4]: ACTH1-39 ≈ α-MSH > β-MSH > γ-MSH; EC50 [4]: 0.0387 ± 0.00651 µM
